{"source": "ChEMBL document CHEMBL1201862", "about": "“PubChem BioAssay data set” (2004)", "key": {"[1]": {"test": "viability loss in Vero cells – cytotoxicity control for Vif-APOBEC3G degradation inhibitor project, dose response (AID 1117358)", "assay_type": "functional", "conditions": "Vero"}, "[2]": {"molecular_target": "Protein Tat (Human immunodeficiency virus type 1 group M subtype B (isolate HXB2)(HIV-1), UniProt P04608)", "sequence (P04608 whole entry)": "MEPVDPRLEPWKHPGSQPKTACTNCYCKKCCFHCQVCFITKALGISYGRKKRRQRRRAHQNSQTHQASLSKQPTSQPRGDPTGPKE", "assay_type": "functional"}, "[3]": {"test": "HIV-1 Vif–A3G interaction blockers – biochemical, TR-FRET, GST-Vif 1-94, biotin-A3G peptide, dose response retest, primary screen (AID 1117319);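 note: TR-FRET signal of purified GST-Vif binding a biotinylated A3G peptide; inhibitors lower the FRET signal by blocking Vif and A3G binding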", "assay_type": "functional"}, "[4]": {"test": "Late stage assay provider results from the probe development effort to identify inhibitors of the Plasmodium falciparum M18 Aspartyl Aminopeptidase (M18AAP): radiolabel-based cell-based dose response assay to identify compounds that inhibit P. falciparum growth in RBCs, Set 2..", "assay_type": "functional"}, "[5]": {"test": "viability loss in HepG2 liver cells – cell-based, ATP luminescence, cherry-pick, set 6, cytotoxicity control, dose response (AID 1053125)", "assay_type": "functional"}, "[6]": {"test": "viability of PTEN-deleted HCT116 cells – cell-based, HCT116 PTEN knockout, dose response (AID 1047);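 note: cells exposed to compound for 60 hours before readout; potency for loss of cell viability measured by luminescence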", "assay_type": "functional"}, "[7]": {"test": "viability of HCT116 lacking mutant beta-catenin – cell-based, human colon tumor, dose response (AID 1045);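 note: cells exposed to compound for 60 hours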", "assay_type": "functional"}, "[8]": {"test": "IC50 of Artemis nuclease activity blockers – biochemical, fluorescence intensity, dose response (AID 720701);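 note: Artemis endonuclease enzyme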", "assay_type": "functional"}, "[9]": {"test": "viability inhibitors of stage V gametocytes – luminescence, dose response (AID 1117278);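 note: gametocytes exposed to compound for 24 hours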", "assay_type": "functional, cell-based"}, "[10]": {"test": "viability loss in human Jurkat cells – cell-based, luminescence, cytotoxicity control for P. falciparum gametocyte viability project, dose response (AID 1117277);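 note: potency reflects loss of cellular ATP meaning fewer viable cells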", "assay_type": "functional"}, "[11]": {"test": "activation of miR-122 Renilla sensor silencing – cell-based, Huh7 psiCHECK-miR122, Renilla luciferase, cherry-picked, dose response (AID 651956);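 note: huh7 hepatoma cells stably carrying a psiCHECK-2 miR-122 sensor plasmid; renilla luciferase signal reporting endogenous miR-122 activity after 48 h compound exposure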", "assay_type": "functional"}, "[12]": {"test": "cytotoxicity in HEK293 background cells – cell-based, dry powder, set 2, counter-screen for EBV LMP1 inhibitor project, dose response (AID 624374)", "assay_type": "functional"}, "[13]": {"molecular_target": "Paired box protein Pax-8 (Homo sapiens, UniProt Q06710)", "sequence (Q06710 whole entry)": "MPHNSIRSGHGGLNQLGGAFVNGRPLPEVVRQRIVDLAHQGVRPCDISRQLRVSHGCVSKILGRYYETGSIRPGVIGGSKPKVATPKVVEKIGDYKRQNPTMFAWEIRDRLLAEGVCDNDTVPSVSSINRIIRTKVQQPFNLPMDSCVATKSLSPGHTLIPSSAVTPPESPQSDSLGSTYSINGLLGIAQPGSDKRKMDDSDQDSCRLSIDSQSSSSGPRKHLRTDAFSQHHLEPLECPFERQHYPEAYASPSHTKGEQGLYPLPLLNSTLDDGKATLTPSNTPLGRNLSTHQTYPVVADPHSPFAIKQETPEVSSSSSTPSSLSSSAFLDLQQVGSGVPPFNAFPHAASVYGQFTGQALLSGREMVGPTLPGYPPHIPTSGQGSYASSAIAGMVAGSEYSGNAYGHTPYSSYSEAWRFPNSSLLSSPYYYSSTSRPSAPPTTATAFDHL", "test": "PAX8 transcriptional activity inhibition in RMG-I – RMG-I cells, luciferase, cherry-pick, dose response (AID 687027);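 note: luciferase reporter driven by Pax8 target thyroperoxidase promoter measured by SteadyGlo luminescence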", "assay_type": "functional, cell-based"}, "[14]": {"test": "inhibitors acting on PAX2 in cells – cell-based, plate reader, dry powder samples, selectivity assay for PAX8 inhibitor project, dose response (AID 743048);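 note: HEK293 cells carrying a WT1 promoter luciferase reporter driven by expressed Pax2; potency is for inhibition of Pax2 driven reporter signal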", "assay_type": "functional"}, "[15]": {"test": "viability loss in A549 lung cells – cell-based, 24 h, CellTiter-Glo luminescence, cherry-picks, cytotoxicity control, dose response (AID 1053115)", "assay_type": "functional", "conditions": "A549, 24 h"}, "[16]": {"test": "PAX5 cellular inhibition readout – cell-based, plate reader, dry powder samples, selectivity assay for PAX8 inhibitor project, dose response (AID 743047);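 note: HEK293 cells carrying a Pax5 driven CD19 promoter luciferase reporter; potency of inhibitors that lower reporter luminescence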", "assay_type": "functional"}, "[17]": {"test": "general mammalian cell viability loss – inhibitor set, cherry-pick, set 2, cytotoxicity control for miR-122 modulator project, dose response (AID 720697)", "assay_type": "functional, cell-based"}, "[18]": {"test": "OV-90 cell viability loss – plate reader, dry powder, SA8, PAX8 inhibitor project, dose response (AID 743149)", "assay_type": "functional, cell-based"}, "[19]": {"test": "PAX8-dependent cell viability loss – plate reader, dry powder, dose response (AID 743049)", "assay_type": "functional, cell-based"}, "[20]": {"test": "lung carcinoma cell viability loss – CellTiter-Glo luminescence, dry powder, set 17, dose response (AID 1117284)", "assay_type": "functional, cell-based", "conditions": "A549"}, "[21]": {"test": "Luminescence-based cell-based high throughput dose response assay to identify activators of the DAF-12 from the parasite S. stercoralis (ssDAF-12).", "assay_type": "functional"}, "[22]": {"molecular_target": "T1, Oxysterols receptor LXR-beta (Homo sapiens, UniProt P55055)", "T1 sequence (P55055 whole entry)": "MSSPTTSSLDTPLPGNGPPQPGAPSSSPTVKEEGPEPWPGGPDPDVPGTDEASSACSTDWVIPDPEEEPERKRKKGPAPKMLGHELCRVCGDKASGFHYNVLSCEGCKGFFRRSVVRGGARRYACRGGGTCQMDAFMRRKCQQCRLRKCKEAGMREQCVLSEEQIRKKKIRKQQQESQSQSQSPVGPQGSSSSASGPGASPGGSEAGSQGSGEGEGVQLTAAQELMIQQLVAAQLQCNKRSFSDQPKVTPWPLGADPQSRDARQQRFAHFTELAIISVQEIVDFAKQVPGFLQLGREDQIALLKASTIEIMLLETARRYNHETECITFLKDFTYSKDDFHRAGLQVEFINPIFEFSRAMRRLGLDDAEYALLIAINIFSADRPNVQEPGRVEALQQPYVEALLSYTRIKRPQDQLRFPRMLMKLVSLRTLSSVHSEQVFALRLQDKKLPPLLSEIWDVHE", "test": "LXR agonists, Gal4 luciferase reporter, dose response, counter-screen for ssDAF-12 agonist project, cell-based, luminescence, HEK293, S. stercoralis campaign (AID 720737)", "assay_type": "functional", "conditions": "read-out: IC50 (the source's name)"}}, "note": "Activity calls are given as the source filed them.", "data": [{"compound": "Cc1ccc(C)c(S(=O)(=O)Nc2ccccc2C(=O)Nc2ccccc2N2CCOCC2)c1", "values": [{"measurement": "CC50", "setting": "[1]", "value": "> 40 µM (active)"}]}, {"compound": "CCOc1ccccc1N1C(=O)CC(Nc2ccc(N3CCOCC3)cc2)C1=O", "note": "(configuration not stated)", "values": [{"measurement": "IC50", "setting": "[2]", "value": "16.3 µM (inconclusive)"}, {"measurement": "IC50", "setting": "[3]", "value": "> 50.6 µM (active)"}]}, {"compound": "Oc1ccc(C2CCN(c3ccnc4ccccc34)CC2)cc1O", "values": [{"measurement": "IC50", "setting": "[4]", "value": "1.3 µM (active)"}]}, {"compound": "Cc1c(C(=O)NCc2ccc3c(c2)OCCO3)sc(=O)n1Cc1ccccc1F", "values": [{"measurement": "AC50", "setting": "[5]", "value": "> 52 µM (inactive)"}]}, {"compound": "COc1ccc(Nc2nc(Nc3ccc(OC)cc3)nc(SC3=NCCS3)n2)cc1", "values": [{"measurement": "EC50", "setting": "[6]", "value": "40.1 µM (active)"}, {"measurement": "EC50", "setting": "[7]", "value": "71.1 µM (active)"}, {"measurement": "IC50", "setting": "[8]", "value": "1.68 µM (active)"}]}, {"compound": "COc1ccccc1OCCOCCOc1ccccc1Cl", "values": [{"measurement": "IC50", "setting": "[9]", "value": "> 109 µM (inactive)"}, {"measurement": "IC50", "setting": "[10]", "value": "> 83.3 µM (inactive)"}]}, {"compound": "C[C@@H]1CN([C@@H](C)CO)S(=O)(=O)c2ccc(C#C[C@@H](C)O)cc2O[C@H]1CN(C)Cc1ccc(-c2ccccc2)cc1", "values": [{"measurement": "AC50", "setting": "[11]", "value": "20.3 µM (active)"}, {"measurement": "AbsAC35", "setting": "[12]", "value": 211.64, "unit": "µM"}, {"measurement": "AC50", "setting": "[13]", "value": "6.61 µM (active)"}, {"measurement": "AC50", "setting": "[14]", "value": "> 70 µM (inactive)"}, {"measurement": "AC50", "setting": "[15]", "value": "53.4 µM (active)"}, {"measurement": "AC50", "setting": "[16]", "value": "41.3 µM (active)"}, {"measurement": "AC50", "setting": "[17]", "value": "8.22 µM (active)"}, {"measurement": "AC50", "setting": "[18]", "value": "17.7 µM (active)"}, {"measurement": "AC50", "setting": "[19]", "value": "> 70 µM (inactive)"}, {"measurement": "AC50", "setting": "[20]", "value": "46.1 µM (active)"}]}, {"compound": "O=C(CCn1c(=S)oc2ccccc21)NC1CCCCC1", "values": [{"measurement": "IC50", "setting": "[21]", "value": "> 67.6 µM (inactive)"}, {"measurement": "EC50", "setting": "[22]", "value": "> 67.6 µM (inactive)"}]}]}
